pEC50, pKd: −log10 of the molar value. Where two headings read alike, the source gives them in different places.
Tests used:
MC3R = target: T1, MC3R (Homo sapiens, UniProt P41968); experiment: Calcium mobilization, HEK-293 transiently expressing MC3R; type: cell-based; conditions: for EC50: HEK-293 transient, read-out: Agonist potency (pEC50), MC3R (converted)
T1 construct: expressed in transfected cells; host or cells: HEK-293, pCIneo, transient (FuGene HD)
Method: (§1) Human MC3R (NM_019888), MC4R (NM_005912), and MC5R (NM_005913) were transiently expressed in HEK-293 cells with and without human GPR139 (KR081941) or the chimeric G-protein Gα16. All genes were cloned into pCIneo (Promega, Madison, WI, United States, #E1841). HEK-293 cells were cultured in DMEM/F12 (Gibco, Grand Island, NY, United States, #11039-021), 10% FBS (Hyclone, Logan, UT, United States, # SH300700.03), 50 units/ml penicillin and 50 μg/ml streptomycin (Mediatech, Manassas, VA, United States, #30-001-CI). Cells were seeded at 4 × 10^6 cells in 10 cm dishes and allowed to grow overnight at 37°C, 5% CO2. On the day of transfection, culture media was replaced with F12-K (Mediatech, Manassas, VA, United States, #10-025-CV), 10% FBS, 20 mM HEPES (Hyclone, Logan, UT, United States, #SH30237.01) and transfected with 15 μg DNA (10 μg MCR:5 μg pCIneo, 10 μg MCR:5 μg Gα16 or 7.5 μg MCR:7.5 μg GPR139) using FuGene HD (Promega, Madison, WI, United States, #E2311) according to manufacturer’s instructions. MC3R, MC4R, and MC5R were also transiently expressed in the following GPR139 stably expressing cell lines using the FuGENE HD method: HEK-293 GPR139 clone#33, CHO-TREx GPR139 clone#18, and SK-N-MC/CRE TREx GPR139 clone#35. Stable cell lines were established according to method previously described ([Liu et al., 2015]).
(§2) Intracellular calcium mobilization was measured with the BD calcium kit (BD Bioscience, San Jose, CA, United States). The recombinant cell lines expressing MC3R, MC4R, and MC5R with and without GPR139 or Gα16 were seeded in culture media at a density of 50,000 cells/well into 96-well black/clear-bottom poly-D-lysine treated tissue culture plates. Cells were incubated overnight at 37°C and 5% CO2. Next day, culture media was removed and cells were washed with HBSS prior to dye-loading for 1 h at 37°C and 5% CO2. […] EC50s were calculated by fitting a three-parameter logistic curve using least-squares non-linear regression analysis as implemented in Graphpad Prism 7.0.

MC4R = target: T2, MC4R (Homo sapiens, UniProt P32245); experiment: Calcium mobilization, HEK-293 transiently expressing MC4R; type: cell-based; conditions: for EC50: HEK-293 transient, read-out: Agonist potency (pEC50), MC4R (converted)
T2 construct: expressed in transfected cells; host or cells: HEK-293, pCIneo, transient (FuGene HD)
Method: as §1
(§3) Intracellular calcium mobilization was measured with the BD calcium kit (BD Bioscience, San Jose, CA, United States). The recombinant cell lines expressing MC3R, MC4R, and MC5R with and without GPR139 or Gα16 were seeded in culture media at a density of 50,000 cells/well into 96-well black/clear-bottom poly-D-lysine treated tissue culture plates. Cells were incubated overnight at 37°C and 5% CO2. Next day, culture media was removed and cells were washed with HBSS prior to dye-loading for 1 h at 37°C and 5% CO2. Agonist stimulation and intracellular calcium measurements were done on the FLIPR Tetra (Molecular Devices, Sunnyvale, CA, United States). For receptor inhibition analysis, antagonists (1 μM HS-024 or 10 μM JNJ-3792165) were added off-line 15 min prior to agonist addition on the Tetra. For G-protein inhibitor experiments, cells were treated with 1 μM YM-254890 for 5 min prior to agonist additions on the Tetra. […] Responses in Figure 6 were normalized to its respective agonist response without antagonist. EC50s were calculated by fitting a three-parameter logistic curve using least-squares non-linear regression analysis as implemented in Graphpad Prism 7.0.

MC4R + GPR139 = MC4R + GPR139 (Homo sapiens, UniProt Q6DWJ6); experiment: Calcium mobilization, HEK-293 transiently expressing MC4R + GPR139; type: cell-based
Method: as §1, §3

MC5R + Gα16 = target: T3, MC5R + Gα16 (Homo sapiens, UniProt P33032); experiment: Calcium mobilization, HEK-293 transiently expressing MC5R + Gα16; type: cell-based; conditions: HEK-293 transient; read-out: Agonist potency (pEC50), MC5R + Gα16 (converted)
T3 construct: expressed in transfected cells; host or cells: HEK-293, pCIneo, transient (10 μg MCR:5 μg Gα16)
Method: as §1, §2

MC5R + GPR139 = MC5R + GPR139 (Homo sapiens, UniProt Q6DWJ6); experiment: Calcium mobilization, HEK-293 transiently expressing MC5R + GPR139; type: cell-based
Method: as §1, §3

GPR139 + MC3R = target: T4, GPR139 + MC3R (Homo sapiens, UniProt Q6DWJ6); experiment: Calcium mobilization, stable GPR139-HEK-293 cell line transiently expressing MC3R; type: cell-based; conditions: for EC50: read-out: Agonist potency (pEC50), stable GPR139-HEK-293 + MC3R (converted)
T4 construct: expressed in transfected cells; host or cells: HEK-293 GPR139 clone#33, MC3R transient (FuGENE HD)
T4 sequence (Q6DWJ6 1-353): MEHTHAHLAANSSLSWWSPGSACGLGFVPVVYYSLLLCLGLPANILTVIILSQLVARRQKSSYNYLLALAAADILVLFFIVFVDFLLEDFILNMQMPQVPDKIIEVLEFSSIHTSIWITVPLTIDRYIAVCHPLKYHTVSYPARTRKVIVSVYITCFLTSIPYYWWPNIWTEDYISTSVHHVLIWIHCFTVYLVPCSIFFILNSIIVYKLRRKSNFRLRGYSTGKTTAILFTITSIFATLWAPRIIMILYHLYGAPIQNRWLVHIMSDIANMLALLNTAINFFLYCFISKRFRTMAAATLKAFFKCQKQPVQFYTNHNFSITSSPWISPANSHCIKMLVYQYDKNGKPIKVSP
Method: as §1, §2

GPR139 + MC4R = GPR139 + MC4R (Homo sapiens, UniProt Q6DWJ6); experiment: Calcium mobilization, stable GPR139-HEK-293 cell line transiently expressing MC4R; type: cell-based
Method: as §1, §2

GPR139 + MC5R = GPR139 + MC5R (Homo sapiens, UniProt Q6DWJ6); experiment: Calcium mobilization, stable GPR139-HEK-293 cell line transiently expressing MC5R; type: cell-based
Method: as §1, §2

GPR139 [1] = target: T5, GPR139 (Homo sapiens, UniProt Q6DWJ6); experiment: cAMP assay; type: cell-based; conditions: unpublished data
T5 sequence (Q6DWJ6 1-353): T4 sequence (Q6DWJ6 1-353)

GPR139 [2] = target: T5, GPR139; set-up: method as in Shehata et al. (2016); conditions: ref Shehata et al. (2016); cited from earlier work
GPR139 [3] = target: T5, GPR139; experiment: Calcium mobilization, CHO-TREx cells stably expressing human GPR139; type: cell-based; set-up: expressed in transfected cells; host or cells: CHO-TREx GPR139 clone#18; conditions: for EC50: CHO-TREx stable GPR139, read-out: pEC50, calcium mobilization (converted)
GPR139 [4] = target: T5, GPR139; experiment: Calcium mobilization, SK-N-MC/CRE cells stably expressing human GPR139; type: cell-based; set-up: expressed in transfected cells; host or cells: CHO-TREx GPR139 clone#18; conditions: for EC50: SK-N-MC/CRE stable GPR139, read-out: pEC50, calcium mobilization (converted)
Method: as §1, §3

GPR139 [5] = target: T5, GPR139; set-up: expressed in transfected cells; host or cells: CHO-TREx GPR139 clone#18; method as in Liu et al., 2015; conditions: used for Cheng-Prussoff; ref Liu et al., 2015; read-out: Kd of [3H]JNJ-63533054; cited from earlier work

T1 sequence (P41968 whole entry): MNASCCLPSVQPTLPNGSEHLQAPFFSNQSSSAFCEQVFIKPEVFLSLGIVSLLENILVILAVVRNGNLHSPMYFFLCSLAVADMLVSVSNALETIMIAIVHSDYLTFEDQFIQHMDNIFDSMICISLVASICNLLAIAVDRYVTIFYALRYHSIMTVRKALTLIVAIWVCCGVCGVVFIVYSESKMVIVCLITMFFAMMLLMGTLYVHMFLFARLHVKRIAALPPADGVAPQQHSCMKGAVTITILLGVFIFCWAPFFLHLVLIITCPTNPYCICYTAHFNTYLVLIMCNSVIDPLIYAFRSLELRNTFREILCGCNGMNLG
Chain of MC5R + GPR139 (P33032 whole entry partner, one chain of several): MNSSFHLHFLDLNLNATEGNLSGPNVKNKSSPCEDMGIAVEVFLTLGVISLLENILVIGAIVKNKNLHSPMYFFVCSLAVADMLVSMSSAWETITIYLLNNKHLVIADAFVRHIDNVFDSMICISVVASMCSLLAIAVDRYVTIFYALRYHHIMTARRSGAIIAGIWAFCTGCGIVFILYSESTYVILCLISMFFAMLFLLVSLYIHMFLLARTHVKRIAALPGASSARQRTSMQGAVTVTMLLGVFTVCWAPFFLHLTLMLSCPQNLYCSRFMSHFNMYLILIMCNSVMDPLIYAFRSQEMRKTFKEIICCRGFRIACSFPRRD
Chain of MC4R + GPR139 (P32245 whole entry partner, one chain of several): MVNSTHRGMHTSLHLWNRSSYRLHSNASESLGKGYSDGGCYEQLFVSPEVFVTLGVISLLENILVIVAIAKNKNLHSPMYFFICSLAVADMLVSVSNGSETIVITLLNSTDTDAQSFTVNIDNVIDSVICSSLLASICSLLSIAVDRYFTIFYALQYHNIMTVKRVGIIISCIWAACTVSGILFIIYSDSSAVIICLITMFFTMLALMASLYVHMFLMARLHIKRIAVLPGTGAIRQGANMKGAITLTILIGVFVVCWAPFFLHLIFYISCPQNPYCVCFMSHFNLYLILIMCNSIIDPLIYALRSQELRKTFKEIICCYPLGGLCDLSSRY
Chain of GPR139 + MC4R (P32245 whole entry partner, one chain of several): as above
Chain of GPR139 + MC5R (P33032 whole entry partner, one chain of several): as the sequence (P33032 whole entry partner, one chain of several) above
T2 sequence (P32245 whole entry): as the sequence (P32245 whole entry partner, one chain of several) above
T3 sequence (P33032 whole entry): as the sequence (P33032 whole entry partner, one chain of several) above

Compound: C[C@H](NC(=O)CNC(=O)c1cccc(Cl)c1)c1ccccc1 [JNJ-63533054, 3-chloro-N-[2-oxo-2-[[(1S)-1-phenylethyl]amino]ethyl]benzamide]
- EC50 (MC3R): > 10 µM
- EC50 (MC4R): > 10 µM
- pEC50 (MC4R + GPR139): 7.45
- Agonist potency (pEC50), MC4R + GPR139, No antagonist (MC4R + GPR139): 7.45 ± 0.09
- EC50 (MC5R + Gα16): > 10 µM
- pEC50 (MC5R + GPR139): 7.68
- Agonist potency (pEC50), MC5R + GPR139, No antagonist (MC5R + GPR139): 7.68 ± 0.08
- EC50 (GPR139 + MC3R): 0.0204 µM
- pEC50 (GPR139 + MC4R): 7.76
- Agonist potency (pEC50), stable GPR139-HEK-293 + MC5R (GPR139 + MC5R): 7.80 ± 0.07
- Response in a cAMP assay (GPR139 [1]): unable to detect a response
- cAMP response (GPR139 [2]): unable to induce or inhibit a cAMP response
- EC50 (GPR139 [3]): 0.0132 µM
- EC50 (GPR139 [4]): 0.0263 µM
- pKd (GPR139 [5]): 8.00

Compound: N[C@@H](Cc1c[nH]c2ccccc12)C(=O)O [L-Trp, L-tryptophan]
- EC50 (MC3R): > 3160 µM
- EC50 (MC4R): > 3160 µM
- pEC50 (MC4R + GPR139): 4.03
- Agonist potency (pEC50), MC4R + GPR139, No antagonist (MC4R + GPR139): 4.03 ± 0.05
- EC50 (MC5R + Gα16): > 3160 µM
- pEC50 (MC5R + GPR139): 4.02
- Agonist potency (pEC50), MC5R + GPR139, No antagonist (MC5R + GPR139): 4.02 ± 0.07
- EC50 (GPR139 + MC3R): 126 µM
- pEC50 (GPR139 + MC4R): 3.86
- pEC50 (GPR139 + MC5R): 3.79
- Response in a cAMP assay (GPR139 [1]): unable to detect a response
- EC50 (GPR139 [3]): 123 µM
- EC50 (GPR139 [4]): 398 µM

Compound: COc1cc(OC)cc(C(=O)NNC(=O)Nc2cccc3ccccc23)c1 [TC-O9311]
- pEC50 (MC3R): < 5.00
- pEC50 (MC4R): < 5.00
- pEC50 (MC4R + GPR139): 7.18
- Agonist potency (pEC50), MC4R + GPR139, No antagonist (MC4R + GPR139): 7.18 ± 0.08
- EC50 (MC5R + Gα16): > 10 µM
- pEC50 (MC5R + GPR139): 7.43
- Agonist potency (pEC50), MC5R + GPR139, No antagonist (MC5R + GPR139): 7.43 ± 0.06
- pEC50 (GPR139 + MC3R): 7.30
- pEC50 (GPR139 + MC4R): 7.21
- pEC50 (GPR139 + MC5R): 7.38
- Response in a cAMP assay (GPR139 [1]): unable to detect a response
- cAMP response (GPR139 [2]): unable to induce or inhibit a cAMP response
- pEC50 (GPR139 [3]): 7.40
- pEC50 (GPR139 [4]): 7.31
